Source: patent US11365204B2, “Substituted dihydrothienopyrimidines and their use as phosphodiesterase inhibitors” (UNION therapeutics A/S, priority 2017, dated 2022)

Assays:
[1] = tested on: Human peripheral blood mononuclear cells (PBMC); assay: TNF-α release from LPS-stimulated PBMC; format: cell-based; details: Lipopolysaccharide 1 microg/ml, 18 hours, AlphaLISA, read-out: TNF-α IC50 range
Procedure: Human peripheral blood mononuclear cells (PBMC) were isolated from fresh buffy coats by density centrifugation using lymphoprep tubes (Medinor). Frozen PBMC's were washed in serum free assay buffer (RPMI1640 with 25 mM HEPES, 1% pen/strep, […] L glutamine, 0.5% human serum albumin) and living cells counted. Lipopolysaccharide (1 microg/ml; SIGMA) was added to the cells which were then transferred to 384 well tissue culture plates ([…]) containing titrated test compounds. The cells were incubated for 18 hours at 37° C. in serum free assay buffer and the level of TNFalpha in the supernatant was quantitated by AlphaLISA (PerkinElmer) by measuring fluorescence intensity at 615 nm.
Results were expressed as IC50 values calculated from inhibition curves using as controls the secretion in LPS stimulated wells and the secretion in cells incubated with 10 microM of a PDE4 inhibitor reference compound.

[2] = target: human PDE4D catalytic domain (UniProt no. Q08499 [S380-L740]) (Homo sapiens (Human), UniProt Q08499); assay: PDE4 assay (TR-FRET, cAMP hydrolysis); format: biochemical; details: read-out: PDE4 IC50 range
Procedure: The human PDE4D catalytic domain (UniProt no. Q08499 [S380-L740]) was incubated with a mixture of non-labelled cAMP (cyclic adenosine monophosphate) and fluorescein amidite (FAM) conjugated cAMP and titrated test or reference compound.
Following brief incubation the enzymatic reaction was stopped by addition of binding buffer containing nanoparticles with immobilized trivalent metal ions capable of binding 1) AMP phospho groups and 2) terbium (Tb) donor fluorophores. Subsequent excitation of the Tb donor triggered time-resolved FRET to adjacent FAM acceptor molecules resulting in light emission. In the presence of a PDE4 inhibitor, AMP generation was reduced resulting in a lower fluorescence signal. The cAMP phosphodiester is not bound by the detection system.
Results were expressed as IC50 values (nM) calculated from inhibition curves where the TR-FRET signal was normalized to Tb fluorescence intensity and the negative (DMSO vehicle) and positive (10 microM a PDE4 inhibitor reference compound) controls.

Chain of human PDE4D catalytic domain (Q08499 380-740): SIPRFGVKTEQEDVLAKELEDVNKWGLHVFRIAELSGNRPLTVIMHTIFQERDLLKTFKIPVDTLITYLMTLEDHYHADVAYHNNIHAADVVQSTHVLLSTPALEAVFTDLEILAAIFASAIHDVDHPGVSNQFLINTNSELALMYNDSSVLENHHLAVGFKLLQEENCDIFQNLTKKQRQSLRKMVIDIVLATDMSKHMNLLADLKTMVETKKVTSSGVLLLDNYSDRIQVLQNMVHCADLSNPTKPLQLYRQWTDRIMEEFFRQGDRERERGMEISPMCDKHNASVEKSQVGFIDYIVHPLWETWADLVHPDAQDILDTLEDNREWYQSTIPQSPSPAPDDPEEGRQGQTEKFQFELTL

Q: Which results are given for `CN(c1nc(N2CC(OC(=O)C3CCSCC3)C2)nc2c1[S+](O)CC2)C1CCOCC1` (stereo not shown) [Example 40, [1-[4-[methyl(tetra-hydropyran-4-yl)amino]-5-oxido-6,7-dihydro-thieno[3,2-d]pyrimidin-5-ium-2-yl]azetidin-3-yl] tetrahydrothiopyran-4-carboxylate]?
A: IC50 [1]: < 0.1 µM; IC50 [2]: < 0.1 µM

Q: Which results are given for `Cc1cc(C(=O)OC2CN(c3nc4c(c(N(C)C5CCOCC5)n3)[S+](O)CC4)C2)cc(C)n1` (stereo not shown) [Example 41, [1-[4-[methyl(tetra-hydropyran-4-yl)amino]-5-oxido-6,7-dihydro-thieno[3,2-d]pyrimidin-5-ium-2-yl]azetidin-3-yl] 2,6-dimethylpyridine-4-carboxylate]?
A: IC50 [1]: < 0.1 µM; IC50 [2]: < 0.1 µM

Q: Which IC50 [1] does the source give for `COc1ccc(C(=O)OC2CN(c3nc4c(c(N(C)C5CCOCC5)n3)[S+]([O-])CC4)C2)cc1` (stereo not shown) [Example 42, [1-[4-[methyl(tetra-hydropyran-4-yl)amino]-5-oxido-6,7-dihydro-thieno[3,2-d]pyrimidin-5-ium-2-yl]azetidin-3-yl] 4-methoxybenzoate] here?
A: Its IC50 is under 0.1 µM.

Q: And the IC50 [2]?
A: The IC50 was under 0.1 µM.

Q: For `COc1cccc(C(=O)OC2CN(c3nc4c(c(N(C)C5CCOCC5)n3)[S+](O)CC4)C2)c1` (stereo not shown) [Example 43, [1-[4-[methyl(tetra-hydropyran-4-yl)amino]-5-oxido-6,7-dihydro-thieno[3,2-d]pyrimidin-5-ium-2-yl]azetidin-3-yl] 3-methoxybenzoate], which IC50 [1] is on record?
A: The IC50 was under 0.1 µM.

Q: And the IC50 [2]?
A: Its IC50 is under 0.1 µM.

Q: Which results are given for `CN(c1nc(N2CC(OC(=O)CCS(C)(=O)=O)C2)nc2c1[S+]([O-])CC2)C1CCOCC1` (stereo not shown) [Example 44]?
A: IC50 [1]: 0.1 to 0.5 µM; IC50 [2]: 0.1 to 0.5 µM

Q: With `CCc1cc(C(=O)OC2CN(c3nc4c(c(N(C)C5CCOCC5)n3)[S+]([O-])CC4)C2)nn1C` (stereo not shown) [Example 45, [1-[4-[methyl(tetra-hydropyran-4-yl)amino]-5-oxido-6,7-dihydro-thieno[3,2-d]pyrimidin-5-ium-2-yl]azetidin-3-yl] 5-ethyl-1-methyl-pyrazole-3-carboxylate] as the compound, how does the IC50 [1] read?
A: Its IC50 is under 0.1 µM.

Q: And the IC50 [2]?
A: Its IC50 is under 0.1 µM.

Q: How did the IC50 [1] turn out when `CCc1nc(C(=O)OC2CN(c3nc4c(c(N(C)C5CCOCC5)n3)[S+](O)CC4)C2)cs1` (stereo not shown) [Example 46, [1-[4-[methyl(tetra-hydropyran-4-yl)amino]-5-oxido-6,7-dihydro-thieno[3,2-d]pyrimidin-5-ium-2-yl]azetidin-3-yl] 2-ethylthiazole-4-carboxylate] was run?
A: The IC50 was under 0.1 µM.

Q: What about the IC50 [2] of the same compound?
A: Its IC50 is under 0.1 µM.

Q: With `CC(=O)c1cccc(C(=O)OC2CN(c3nc4c(c(N(C)C5CCOCC5)n3)[S+](O)CC4)C2)c1` (stereo not shown) [Example 47, [1-[4-[methyl(tetra-hydropyran-4-yl)amino]-5-oxido-6,7-dihydro-thieno[3,2-d]pyrimidin-5-ium-2-yl]azetidin-3-yl] 3-acetylbenzoate] as the compound, how does the IC50 [1] read?
A: Its IC50 is under 0.1 µM.

Q: What about the IC50 [2] of the same compound?
A: Its IC50 is under 0.1 µM.

Q: Which results are given for `CC(=O)c1ccc(C(=O)OC2CN(c3nc4c(c(N(C)C5CCOCC5)n3)[S+](O)CC4)C2)cc1` (stereo not shown) [Example 48, [1-[4-[methyl(tetra-hydropyran-4-yl)amino]-5-oxido-6,7-dihydro-thieno[3,2-d]pyrimidin-5-ium-2-yl]azetidin-3-yl] 4-acetylbenzoate]?
A: IC50 [1]: < 0.1 µM; IC50 [2]: < 0.1 µM

Q: `CC(=O)N1CCC(C(=O)OC2CN(c3nc4c(c(N(C)C5CCOCC5)n3)[S+](O)CC4)C2)CC1` (stereo not shown) [Example 49, [1-[4-[methyl(tetra-hydropyran-4-yl)amino]-5-oxido-6,7-dihydro-thieno[3,2-d]pyrimidin-5-ium-2-yl]azetidin-3-yl] 1-acetylpiperidine-4-carboxylate] was tested. Which IC50 [1] did it give?
A: The IC50 was under 0.1 µM.

Q: What about the IC50 [2] of the same compound?
A: The IC50 was under 0.1 µM.

Q: For `CN(c1nc(N2CC(OC(=O)C3CCS(=O)(=O)CC3)C2)nc2c1[S+](O)CC2)C1CCOCC1` (stereo not shown) [Example 50, [1-[4-[methyl(tetra-hydropyran-4-yl)amino]-5-oxido-6,7-dihydro-thieno[3,2-d]pyrimidin-5-ium-2-yl]azetidin-3-yl] 1,1-dioxothiane-4-carboxylate], which IC50 [1] is on record?
A: Its IC50 is 0.1 to 0.5 µM.

Q: And the IC50 [2]?
A: Its IC50 is 0.1 to 0.5 µM.

Q: How did the IC50 [1] turn out when `CNC(=O)c1ccc(C(=O)OC2CN(c3nc4c(c(N(C)C5CCOCC5)n3)[S+](O)CC4)C2)cc1` (stereo not shown) [Example 51, [1-[4-[methyl(tetra-hydropyran-4-yl)amino]-5-oxido-6,7-dihydro-thieno[3,2-d]pyrimidin-5-ium-2-yl]azetidin-3-yl] 4-(methylcarbamoyl)-benzoate] was run?
A: Its IC50 is under 0.1 µM.

Q: And the IC50 [2]?
A: Its IC50 is under 0.1 µM.

Q: What does the source list for `COC(=O)N1CCC(C(=O)OC2CN(c3nc4c(c(N(C)C5CCOCC5)n3)[S+](O)CC4)C2)CC1` (stereo not shown) [Example 52, O1-methyl O4-[1-[4-[methyl(tetrahydro-pyran-4-yl)amino]-5-oxido-6,7-dihydro-thieno[3,2-d]pyrimidin-5-ium-2-yl]azetidin-3-yl] piperidine-1,4-dicarboxylate]?
A: IC50 [1]: < 0.1 µM; IC50 [2]: < 0.1 µM

Q: How did the IC50 [1] turn out when `CN(C)C(=O)c1ccc(C(=O)OC2CN(c3nc4c(c(N(C)C5CCOCC5)n3)[S+](O)CC4)C2)cc1` (stereo not shown) [Example 53, [1-[4-[methyl(tetra-hydropyran-4-yl)amino]-5-oxido-6,7-dihydro-thieno[3,2-d]pyrimidin-5-ium-2-yl]azetidin-3-yl] 4-(dimethylcarbamoyl)-benzoate] was run?
A: Its IC50 is under 0.1 µM.

Q: And the IC50 [2]?
A: Its IC50 is under 0.1 µM.

Q: Which IC50 [1] does the source give for `CN(c1nc(N2CC(OC(=O)c3ccc(S(C)(=O)=O)cc3)C2)nc2c1[S+](O)CC2)C1CCOCC1` (stereo not shown) [Example 54, [1-[4-[methyl(tetra-hydropyran-4-yl)amino]-5-oxido-6,7-dihydro-thieno[3,2-d]pyrimidin-5-ium-2-yl]azetidin-3-yl] 4-methylsulfonyl-benzoate] here?
A: Its IC50 is under 0.1 µM.

Q: And the IC50 [2]?
A: The IC50 was under 0.1 µM.

Q: For `CN(C)C(=O)N1CCC(C(=O)OC2CN(c3nc4c(c(N(C)C5CCOCC5)n3)[S+](O)CC4)C2)CC1` (stereo not shown) [Example 55, [1-[4-[methyl(tetra-hydropyran-4-yl)amino]-5-oxido-6,7-dihydro-thieno[3,2-d]pyrimidin-5-ium-2-yl]azetidin-3-yl] 1-(dimethylcarbamoyl)-piperidine-4-carboxylate], which IC50 [1] is on record?
A: Its IC50 is under 0.1 µM.

Q: And the IC50 [2]?
A: The IC50 was under 0.1 µM.

Q: What does the source list for `CCS(=O)(=O)c1cccc(C(=O)OC2CN(c3nc4c(c(N(C)C5CCOCC5)n3)[S+]([O-])CC4)C2)c1` (stereo not shown) [Example 56, [1-[4-[methyl(tetra-hydropyran-4-yl)amino]-5-oxido-6,7-dihydro-thieno[3,2-d]pyrimidin-5-ium-2-yl]azetidin-3-yl] 3-ethylsulfonylbenzoate]?
A: IC50 [1]: < 0.1 µM; IC50 [2]: < 0.1 µM

Q: For `CCS(=O)(=O)c1ccc(C(=O)OC2CN(c3nc4c(c(N(C)C5CCOCC5)n3)[S+]([O-])CC4)C2)cc1` (stereo not shown) [Example 57, [1-[4-[methyl(tetra-hydropyran-4-yl)amino]-5-oxido-6,7-dihydro-thieno[3,2-d]pyrimidin-5-ium-2-yl]azetidin-3-yl] 4-ethylsulfonylbenzoate], which IC50 [1] is on record?
A: The IC50 was under 0.1 µM.

Q: And the IC50 [2]?
A: Its IC50 is under 0.1 µM.

Q: With `CNS(=O)(=O)c1ccc(C(=O)OC2CN(c3nc4c(c(N(C)C5CCOCC5)n3)[S+]([O-])CC4)C2)cc1` (stereo not shown) [Example 58, [1-[4-[methyl(tetra-hydropyran-4-yl)amino]-5-oxido-6,7-dihydro-thieno[3,2-d]pyrimidin-5-ium-2-yl]azetidin-3-yl] 4-(methylsulfamoyl)-benzoate] as the compound, how does the IC50 [1] read?
A: The IC50 was under 0.1 µM.

Q: What about the IC50 [2] of the same compound?
A: The IC50 was under 0.1 µM.

Q: For `CC(C)S(=O)(=O)c1cccc(C(=O)OC2CN(c3nc4c(c(N(C)C5CCOCC5)n3)[S+](O)CC4)C2)c1` (stereo not shown) [Example 59, [1-[4-[methyl(tetra-hydropyran-4-yl)amino]-5-oxido-6,7-dihydro-thieno[3,2-d]pyrimidin-5-ium-2-yl]azetidin-3-yl] 3-isopropylsulfonyl-benzoate], which IC50 [1] is on record?
A: Its IC50 is under 0.1 µM.

Q: What about the IC50 [2] of the same compound?
A: Its IC50 is under 0.1 µM.
